Data reported in patent US20020115640A1, “Farnesyltransferase inhibitors” (priority 2000, published 2002).

Molecular target: T1, farnesyltransferase (Rattus norvegicus, UniProt Q02293+Q04631)
T1 construct: The enzyme can be purified according to Cell, 62: 81-88 (1990), utilizing steps one, two, and three; from tissue; host or cells: rat brain
Experiment: Inhibition of farnesyltransferase (3H-farnesyldiphosphate / H-Ras filter assay)
Type: biochemical
Details: test compound at 10^−7 M; 3H-farnesyldiphosphate 0.6 μM, H-Ras 5.0 μM, 37° C., 30 minutes
Text: The ability of the compounds of the present invention to inhibit farnesyltransferase can be measured according to the method described in J. Biol. Chem., 266: 14603 (1991) or J. Biol. Chem., 270:660-664 (1995). Procedures for determination of the inhibition of farnesylation of the oncogene protein Ras are described in J. Biol. Chem., 266:15575-15578 (1991) and U.S. Pat. No. 5,245,061. Inhibition of rat brain farnesyltransferase can also be measured in vitro using an Amersham Life Science commercial scintillation proximity assay kit and substituting a biotin-K Ras B fragment (0.1 μM final concentration) for the biotin-lamin substrate provided by Amersham. The enzyme can be purified according to Cell, 62: 81-88 (1990), utilizing steps one, two, and three. […] The percent inhibition of the farnesylation caused by the compounds of the present invention (at 10^−6 M) compared to an uninhibited control sample can be evaluated in the same Amersham test system.
The mixture was brought to 37° C., treated with enzyme, incubated for 30 minutes, treated with 1 M HCl/ethanol (1 mL) to stop the reaction, stirred for 15 minutes at room temperature, diluted with ethanol (2 mL), filtered through a 2.5 cm glass microfiber filter (Whatman) with ethanol rinses (4×2 mL). The glass transferred to a scintillation vial and treated with scintillation fluid (5 mL). The radioisotope retained on the glass fiber filter was counted and reflected the activity of the enzyme.

T1 sequence (Q02293 whole entry, one chain of several): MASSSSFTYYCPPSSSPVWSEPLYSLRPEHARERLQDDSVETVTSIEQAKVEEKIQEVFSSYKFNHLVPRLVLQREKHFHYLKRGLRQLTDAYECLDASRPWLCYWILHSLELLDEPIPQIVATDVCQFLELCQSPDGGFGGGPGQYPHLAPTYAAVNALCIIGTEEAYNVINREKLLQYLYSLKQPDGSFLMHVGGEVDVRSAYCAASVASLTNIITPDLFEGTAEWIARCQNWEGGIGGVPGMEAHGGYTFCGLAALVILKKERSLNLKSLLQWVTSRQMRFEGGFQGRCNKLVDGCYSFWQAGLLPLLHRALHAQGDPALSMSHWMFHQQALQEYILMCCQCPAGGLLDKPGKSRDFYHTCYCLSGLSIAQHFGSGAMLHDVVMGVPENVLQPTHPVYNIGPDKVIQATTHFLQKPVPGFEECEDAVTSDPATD

Row | inhibition at 0.1 µM [%] | SMILES
1 | > 98 | Cn1cncc1C(OCc1ccc(C#N)cc1-c1ccc2c(c1)OCO2)c1ccc(C#N)cc1 (stereo not drawn) [Example 33, 3-(1,3-benzodioxol-5-yl)-4-(((4-cyanophenyl)(1-methyl-1H-imidazol-5-yl)methoxy)methyl)benzonitrile]
2 | 96 | Cn1cncc1C(OCc1ccc(Cl)nc1-c1cccc(Cl)c1)c1ccc(C#N)cc1 (stereo not drawn) [Example 35, 4-(((6-chloro-2-(3-chlorophenyl)-3-pyridinyl)methoxy)(1-methyl-1H-imidazol-5-yl)methyl)benzonitrile]
3 | 10 | Cn1cncc1C(NC(=O)c1cn(C)c(=O)cc1-c1cccc(Cl)c1)c1ccc(C#N)cc1 (stereo not drawn) [Example 41, 4-(3-chlorophenyl)-N-((4-cyanophenyl)(1-methyl-1H-imidazol-5-yl)methyl)-1-methyl-6-oxo-1,6-dihydro-3-pyridinecarboxamide]
4 | 70 | Cc1ccc(COC(c2ccc(C#N)cc2)c2cncn2C)c(-c2cccc(Cl)c2)n1 (stereo not drawn) [Example 36, 4-(((2-(3-chlorophenyl)-6-methyl-3-pyridinyl)methoxy)(1-methyl-1H-imidazol-5-yl)methyl)benzonitrile]

More lines, now with the values behind:

Row | SMILES | inhibition at 0.1 µM [%]
5 | Cn1cncc1C(OCc1ccc(Cl)cc1-c1ccc(C=O)s1)c1ccc(C#N)cc1 (stereo not drawn) [Example 29, 4-(((4-chloro-2-(5-formyl-2-thienyl)benzyl)oxy)(1-methyl-1H-imidazol-5-yl)methyl)benzonitrile] | 92
6 | Cn1cncc1C(OCc1ccc(Cl)cc1-c1ccc(Cl)cc1)c1ccc(C#N)cc1 (stereo not drawn) [Example 11, 4-(((4′,5-dichloro(1,1′-biphenyl)-2-yl)methoxy)(1-methyl-1H-imidazol-5-yl)methyl)benzonitrile] | 92
7 | Cn1cncc1C(OCc1ccc(Cl)cc1-c1cccc(C=O)c1)c1ccc(C#N)cc1 (stereo not drawn) [Example 30, 4-(((5-chloro-3′-formyl(1,1′-biphenyl)-2-yl)methoxy)(1-methyl-1H-imidazol-5-yl)methyl)benzonitrile] | 92
8 | Cn1cncc1C(OCc1ccc(Cl)cc1-c1cccc(F)c1)c1ccc(C#N)cc1 (stereo not drawn) [Example 10, 4-(((5-chloro-3′-fluoro(1,1′-biphenyl)-2-yl)methoxy)(1-methyl-1H-imidazol-5-yl)methyl)benzonitrile] | 94
9 | COc1cccc(-c2cc(Cl)ccc2COC(c2ccc(C#N)cc2)c2cncn2C)c1 (stereo not drawn) [Example 9, 4-(((5-chloro-3′-methoxy(1,1′-biphenyl)-2-yl)methoxy)(1-methyl-1H-imidazol-5-yl)methyl)benzonitrile] | > 91
10 | Cn1cncc1C(OCc1ccc(Cl)cc1-c1cccc(C#N)c1)c1ccc(C#N)cc1 (stereo not drawn) [Example 14, 3′-chloro-6′-(((4-cyanophenyl)(1-methyl-1H-imidazol-5-yl)methoxy)methyl)(1,1′-biphenyl)-3-carbonitrile] | 96
11 | Cn1cncc1C(OCc1ccc(Cl)cc1-c1cccc(Cl)c1)c1ccc(C#N)cc1 (stereo not drawn) [Example 6, 4-(((3′,5-dichloro(1,1′-biphenyl)-2-yl)methoxy)(1-methyl-1H-imidazol-5-yl)methyl)benzonitrile] | > 91
12 | Cn1cncc1C(OCc1ccc(Cl)cc1-c1ccc2c(c1)OCO2)c1ccc(C#N)cc1 (stereo not drawn) [Example 23, 4-(((2-(1,3-benzodioxol-5-yl)-4-chlorobenzyl)oxy)(1-methyl-1H-imidazol-5-yl)methyl)benzonitrile] | > 92
13 | CCOc1cccc(-c2cc(C#N)ccc2COC(c2ccc(C#N)cc2)c2cncn2C)c1 (stereo not drawn) [Example 32, 6-(((4-cyanophenyl)(1-methyl-1H-imidazol-5-yl)methoxy)methyl)-3′-ethoxy(1,1′-biphenyl)-3-carbonitrile] | > 98
14 | Cn1cncc1C(OCc1ccc(Cl)cc1-c1cccc(C(F)(F)F)c1)c1ccc(C#N)cc1 (stereo not drawn) [Example 8, 4-(((5-chloro-3′-(trifluoromethyl)(1,1′-biphenyl)-2-yl)methoxy)(1-methyl-1H-imidazol-5-yl)methyl)benzonitrile] | 96
15 | Cc1ccccc1-c1cc(Cl)ccc1COC(c1ccc(C#N)cc1)c1cncn1C (stereo not drawn) [Example 4, 4-(((5-chloro-2′-methyl(1,1′-biphenyl)-2-yl)methoxy)(1-methyl-1H-imidazol-5-yl)methyl)benzonitrile] | 89

Same assay, conditions: test compound at 10^−8 M; 3H-farnesyldiphosphate 0.6 μM, H-Ras 5.0 μM, 37° C., 30 minutes

Row | inhibition at 0.01 µM [%] | SMILES
16 | 90 | Cn1cncc1C(F)(COc1ccc(C#N)cc1-c1ccc(OC(F)(F)F)cc1)c1ccc(C#N)cc1 (stereo not drawn) [Example 64, 6-(2-(4-cyanophenyl)-2-fluoro-2-(1-methyl-1H-imidazol-5-yl)ethoxy)-4′-(trifluoromethoxy)-1,1′-biphenyl-3-carbonitrile]
17 | 96 | Cn1cncc1C(O)(COc1ccc(C#N)cc1-c1ccc2c(c1)OC(F)(F)O2)c1ccc(C#N)cc1 (stereo not drawn) [Example 79, 4-(2-(4-cyanophenyl)-2-hydroxy-2-(1-methyl-1H-imidazol-5-yl)ethoxy)-3-(2,2-difluoro-1,3-benzodioxol-5-yl)benzonitrile]
18 | 98 | Cn1cncc1C(O)(COc1ccc(C#N)cc1-c1ccc2c(c1)OCO2)c1ccc(C#N)cc1 (stereo not drawn) [Example 55, 3-(1,3-benzodioxol-5-yl)-4-(2-(4-cyanophenyl)-2-hydroxy-2-(1-methyl-1H-imidazol-5-yl)ethoxy)benzonitrile]
19 | 94 | CN(CC(O)(c1ccc(C#N)cc1)c1cncn1C)c1ccc(C#N)cc1-c1ccc(OC(F)(F)F)cc1 (stereo not drawn) [Example 86, 6-((2-(4-cyanophenyl)-2-hydroxy-2-(1-methyl-1H-imidazol-5-yl)ethyl)(methyl)amino)-4′-(trifluoromethoxy)-1,1′-biphenyl-3-carbonitrile]
20 | 94 | Cn1cncc1C(O)(COc1ccc(C#N)cc1-c1cc(F)cc(F)c1)c1ccc(C#N)cc1 (stereo not drawn) [Example 67, 6-(2-(4-cyanophenyl)-2-hydroxy-2-(1-methyl-1H-imidazol-5-yl)ethoxy)-3′,5′-difluoro-1,1′-biphenyl-3-carbonitrile]
21 | 92 | COc1cccc(-c2cc(C#N)ccc2N(C)CC(O)(c2ccc(C#N)cc2)c2cncn2C)c1 (stereo not drawn) [Example 84, 6-((2-(4-cyanophenyl)-2-hydroxy-2-(1-methyl-1H-imidazol-5-yl)ethyl)(methyl)amino)-3′-methoxy-1,1′-biphenyl-3-carbonitrile]
22 | 95 | Cn1cncc1C(O)(COc1ccc(C#N)cc1-c1cccc(OC(F)(F)F)c1)c1ccc(C#N)cc1 (stereo not drawn) [Example 69, 6-(2-(4-cyanophenyl)-2-hydroxy-2-(1-methyl-1H-imidazol-5-yl)ethoxy)-3′-(trifluoromethoxy)-1,1′-biphenyl-3-carbonitrile]

Same assay, conditions: test compound at 10^−9 M (stated in the cell); 3H-farnesyldiphosphate 0.6 μM, H-Ras 5.0 μM, 37° C., 30 minutes

Row | inhibition at 0.001 µM [%] | SMILES
23 | 75 | Cn1cncc1C(OCc1ccc(C#N)nc1-c1ccc2c(c1)OC(F)(F)O2)c1ccc(C#N)cc1 (stereo not drawn) [Example 89, 5-(((4-cyanophenyl)(1-methyl-1H-imidazol-5-yl)methoxy)methyl)-6-(2,2-difluoro-1,3-benzodioxol-5-yl)pyridine-2-carbonitrile]
24 | 75 | Cn1cncc1C(O)(COc1ccc(C#N)cc1-c1ccc(F)c(Cl)c1)c1ccc(C#N)cc1 (stereo not drawn) [Example 65, 3′-chloro-6-(2-(4-cyanophenyl)-2-hydroxy-2-(1-methyl-1H-imidazol-5-yl)ethoxy)4′-fluoro-1,1′-biphenyl-3-carbonitrile]
